Experimental data published in patent US20050220861A1, “Colonic release compostion” (priority 2002, published 2005).
Read-outs that look alike come from different tables or passages of the source.

How the values were obtained:
[1] = for drug content of the formulation released from the pellets / prednisolone sodium metasulphobenzoate retained in the excreted pellets, mean: 3rd Phase I
Experimental: (§1) Capsules containing coated pellets of prednisolone sodium metasulphobenzoate, equivalent to 60 mg prednisolone, were administered to seven healthy, fasted volunteers. Progress of the dose through the gastrointestinal tract was followed over 24 hours by gamma-scintigraphy after the co-administration of ethylcellulose coated ^111indium labelled non-pareils. Plasma levels of prednisolone were determined at various time points up to 48 hours after administration. Excreted drug pellets were harvested over five days and residual drug levels determined.
(§2) The trial comprised a combined gamma scintigraphic and pharmacokinetic study with excreted pellet analysis to the same design as the first Phase I study (above) following administration of the prednisolone sodium metasulphobenzoate ester at a dose of 94.2 mg, equivalent to 60 mg of prednisolone. In this second study, the thickness of the coating of the pellets was increased and the proportion of amylose was increased in the coat.
(§3) The trial comprised a combined gamma scintigraphic and pharmacokinetic study with excreted pellet analysis to the same design as the first Phase I study (above) following administration of prednisolone sodium metasulphobenzoate ester at a dose of 94.2 mg, equivalent to 60 mg prednisolone. In this third study, administering the coated prednisolone pellets to volunteers in the fed and fasted state was examined.

[2] = human, in vivo, po
Experimental: Four phase I studies have been completed. In the first of these, an ethyl cellulose to amylose ratio of 5:1 was used with a 10% weight gain. The second and third studies, investigated the effect of a thicker coat (20% weight gain) at a 4:1 ethylcellulose to amylose ratio. All other features of the comparison formulation were the same.
as §1, §2, §3
The pellets were produced as described in Example 2.
This trial used a higher dose of prednisolone sodium metasulphobenzoate, equivalent to 100 mg of prednisolone.

[3] = parameters: Cmax (prednisolone) / AUC (prednisolone): unit not given beside the values; conditions: cited from earlier work
[4] = parameters: unit not given beside the values; conditions: in vivo, po, 40 mg; cited from earlier work
[5] = McIntyre et al 1985, 20 mg, rectal

SMILES: C[C@]12C=CC(=O)C=C1CC[C@@H]1[C@@H]2[C@@H](O)C[C@@]2(C)[C@H]1CC[C@]2(O)C(=O)COC(=O)c1cccc(S(=O)(=O)[O-])c1.[Na+] [Prednisolone metasulphobenzoate, prednisolone sodium metasulphobenzoate]
- amount of prednisolone recovered from pellets harvested from the faeces ([1]; 1st Phase I, 60 mg oral, average of all subjects): 2.5 ± 1.12 mg
- prednisolone recovered from excreted pellets, % of the administered dose ([1]; 1st Phase I, all cases): less than 5%
- drug excreted in the pellets, % of the administered dose ([1]; 2nd Phase I): less than 2%
- arrival of the drug pellets at the ileo-caecal junction ([1]; 2nd Phase I, amylose:ethylcellulose 1:4, 20% weight gain): 5.9 ± 2.0 h
- mean quantity of drug excreted in the pellets, determined as prednisolone sodium metasulphobenzoate ([1]; 2nd Phase I, dose 94.2 mg ester): 1.7 mg
- drug content of the formulation released from the pellets ([1]; fasted): over 90%
- prednisolone sodium metasulphobenzoate retained in the excreted pellets, mean ([1]; fasted, dose 94.2 mg ester): 6.1 ± 1.0 mg
- drug content of the formulation released from the pellets ([1]; fed): over 90%
- prednisolone sodium metasulphobenzoate retained in the excreted pellets, mean ([1]; fed, dose 94.2 mg ester): 3.1 ± 1.2 mg
- AUC (prednisolone) ([2]; 60 mg): 1441 ± 541
- Cmax (prednisolone) ([2]; 60 mg): 168 ± 56
- AUC ([2]; 100 mg): 152 ng·mL·h
- Cmax ([2]; 100 mg): 18.9 ng/mL
- AUC ([3]; in vivo, 60 mg): 632 ± 509 ng·mL·h
- AUC (prednisolone) ([3]; in vivo, 60 mg): 632 ± 509
- Cmax ([3]; in vivo, 60 mg): 147 ± 79 ng/mL
- Cmax (prednisolone) ([3]; in vivo, 60 mg): 147 ± 79
- AUC (prednisolone) [4]: 2189 ± 475
- Cmax (prednisolone) [4]: 242 ± 58

SMILES: C[C@]12C=CC(=O)C=C1CC[C@@H]1[C@@H]2[C@@H](O)C[C@@]2(C)[C@H]1CC[C@]2(O)C(=O)COP(=O)(O)O [Prednisolone-21-phosphate]
- AUC (prednisolone) [3, 5]: 599 ± 310
- Cmax (prednisolone) [3, 5]: 148 ± 75
